# Data published in patent EP4628497A1, “STEROID-CATIONIC LIPID COMPOUND AND USE THEREOF” (Jenkem Technology Co., Ltd. (Liaoning), priority 2023, dated 2024).
# Experiment: Physicochemical parameters of Luc-mRNA-LNP (particle size, PDI, zeta potential, encapsulation efficiency)
# Details: lipid formulation of Table 1
# Experimental: The lipid compound of the present disclosure, neutral lipid (phospholipid), and PEG lipid were dissolved in an ethanol solution according to a specific molar ratio (detailed formulation shown in Table 1). The mRNA was dissolved in a citric acid buffer (pH 4.0) to a final concentration of 135 ng/µL. The LNP mixture and the mRNA dilution were mixed at a volume ratio of 1:3, and mRNA-LNP complexes were prepared using a microfluidic nano-preparation system with a flow rate ratio of 1:3 between the LNP mixture and the mRNA dilution, that is, the LNP volume:the mRNA volume was 1:3. After dilution with a 10× phosphate buffer solution (pH 7.4), ultrafiltration concentration was performed, followed by about 500-fold dilution with solution replacement. An experimental sample was obtained after sterile filtration. Samples were taken and analyzed for average particle size, PDI, and Zeta potential. Table 1: Three-component LNP lipid formulation based on cholesterol cationic lipid compound
# Example 13: Preparation, Characterization, and In Vitro Cell Transfection Activity Evaluation of Luc-mRNA-LNP Using luciferase gene Luc-mRNA and referring to the preparation method provided in Example 12 and the lipid formulation provided in Table 1, Luc-mRNA-LNP was constructed, whose encapsulation efficiency, average particle size, PDI, and zeta potential data are shown in Table 2. […]
smiles,measurement,value
CCCCCCCCCCCOC(=O)CCCCCN(CCO)CCCCCCCC(=O)OC(CCCCCCCC)CCCCCCCC [SM-102],Encapsulation efficiency (%),below 15%
